The text below walks through data of article PMC7259601 (PLoS ONE, 2020).

For orientation: inhibition means the change of the read-out against control, counted positive when it falls.

For one assay, the target named is T1, Human recombinant IL-4I1 (Homo sapiens, UniProt Q96RQ9).
T1 construct: purchased RD Systems 5684-AO-020
Put plainly: IL4I1 inhibition assay. The class given is biochemical. The procedure: Human recombinant IL-4I1 was purchased from RD Systems (Ref. 5684-AO-020). The biochemical activity was measured by its ability to oxidize phenylalanine (specific substrate for IL-4I1; Sigma, P2126) and liberate H2O2 was measured in a coupled horseradish peroxidase assay using Amplex Red reagent as a substrate, as described in the KDM1A assay. The IL4I1 assay buffer was 50 mM Sodium Phosphate pH 7.0. Inhibition of IL-4I1 was monitored during 30 min in the presence of KM phenylalanine peptide at the KMapp of IL-4I1.

The next assay relates to KDM1A. Put plainly: Ex vivo KDM1A target engagement in rat brain and PBMCs. On the set-up: species or system Sprague-Dawley rats. How it is done: . Native protein extracts of cells or tissues were obtained in presence of 25 nM OG-881 chemoprobe according the protocol described in Mascaró et al..
Luminescent ELISA: for quantification of total amount of KDM1A protein (TOTAL KDM1A), Luminunc Plates Maxisorp (NUNC; #436110) were coated with a monoclonal anti-KDM1A antibody (Abcam; #ab53269) at 2 µg/mL in PBS. For quantification of the fraction not bound to inhibitor (FREE KDM1A), plates were coated with streptavidin (Promega Biotech Ibérica; #Z7041) at 10 µg/mL in PBS. Coating was performed at 4°C O/N. Wells were washed 3 times in PBS, 0.1% Tween-20 and blocked with PBS-BSA 1% (Sigma; #A3059) for 2 hr. A KDM1A calibration curve of full length rKDM1A (Active Motif; #31334) diluted in PBS was included in each plate. Plates were then incubated 1 hr at RT and washed 5 times. […] Plates were centrifuged during 30 sec to 1,500 x g, shaken for 1 min at 100rpm and incubated inside the micropate reader (Infinite 200, Tecan) for 3 min at 25 °C. The relative luminescence units (RLU) readouts were acquired using a 1000 msec integration time and 150 msec settle time.
. […] After raw data processing (robust elimination of outliers according to Grubbs criteria and subtraction of blank signal on technical replicates), the target engagement was calculated as […]

The target in another assay is T2, PDE1B (h) (Homo sapiens, UniProt Q01064).
T2 construct: purchased CEREP (Eurofins Cerep)
Put plainly: CEREP Diversity Panel. The class given is biochemical. How it is done: (§1) […]. MAO-A inhibition at 10 μM was 37%, in line with internal data.

In assay [1] the target is T3, phosphatase 1B (h) (PTP1B) (Homo sapiens, UniProt P18031).
T3 construct: purchased CEREP (Eurofins Cerep)
Put plainly: CEREP Diversity Panel. The class given is biochemical. How it is done:
as §1

For assay [2], the target named is T4, PNMT (phenylethanolamine N-methyl transferase) (Bos taurus, UniProt P10938).
T4 construct: purchased CEREP (Eurofins Cerep)
Put plainly: CEREP Diversity Panel. The class given is biochemical. The procedure:
as §1

The next assay concerns the target T5, phosphatase CDC25A (h) (Homo sapiens, UniProt P30304).
T5 construct: purchased CEREP (Eurofins Cerep)
Put plainly: CEREP Diversity Panel. The class given is biochemical. How it is done:
as §1

Another assay concerns the target T6, Eg5 (h) (Homo sapiens, UniProt P52732).
T6 construct: purchased CEREP (Eurofins Cerep)
Put plainly: CEREP Diversity Panel. The class given is biochemical. How it is done:
as §1

The test system of assay [3] is isolated Sprague-Dawley rats. Put plainly: Resident Intruder test, rat isolation rearing model. The class given is in vivo. The following applies: 0.16 or 0.48 mg/kg/day. How it is done: Sprague Dawley Rats: Right after the weaning (post natal day 21-23), 72 Sprague-Dawley male rats (Charles River, bred in the UAB Animal facility) were divided in two groups: Control (N = 18), maintained 3-4 animals per cage; Isolated (N = 54), 1 animal per cage ([…] 1291H Eurostandard type III with ECOPURE CHIPS 6 bedding material, Harlan). Animals were maintained at 21 ± 2 °C controlled temperature in a 12 hr light / dark cycle (lights on at 8:00 am) with ad libitum access to food (2014 TEKLAD, Harlan) and water. […] Control animals were treated with vehicle. The administration route was drinking water and the vehicle 1.8% 2-Hydroxypropyl-b-cyclodextrin. Drug concentration was adjusted weekly by body weight and water consumption. During the last week of treatment, all animals were tested in the EPM and, on a different day, in the RI test (N = 12 / group). After depth anesthesia with Isoflurane, animals were perfused with saline solution followed by paraformaldehyde in order to obtain brain samples for histological analysis.
The protocol was modified from previously described. Briefly, the test subject (resident) was maintained in its home cage without bedding changes for one week. […] In mice the session was video-recorded for 20 min and social interaction (social interaction and rearings) and aggressive behavior (lateral threats, clinch attacks, keep-down behavior) were analyzed. […] In rats the session was video recorded for 15 min and social interaction (active and passive social interaction, number of evitations and time without social interaction) were analyzed. […] In addition, the time spent without social interaction was also measured.
Resident Intruder (RI): Mice were video-recorded for 20 min and social interaction and aggressive behavior were analyzed. Rats were video recorded for 15 min and social interaction (active and passive social interaction, number of evitations and time without social interaction) were analyzed.

T5 sequence (P30304 whole entry): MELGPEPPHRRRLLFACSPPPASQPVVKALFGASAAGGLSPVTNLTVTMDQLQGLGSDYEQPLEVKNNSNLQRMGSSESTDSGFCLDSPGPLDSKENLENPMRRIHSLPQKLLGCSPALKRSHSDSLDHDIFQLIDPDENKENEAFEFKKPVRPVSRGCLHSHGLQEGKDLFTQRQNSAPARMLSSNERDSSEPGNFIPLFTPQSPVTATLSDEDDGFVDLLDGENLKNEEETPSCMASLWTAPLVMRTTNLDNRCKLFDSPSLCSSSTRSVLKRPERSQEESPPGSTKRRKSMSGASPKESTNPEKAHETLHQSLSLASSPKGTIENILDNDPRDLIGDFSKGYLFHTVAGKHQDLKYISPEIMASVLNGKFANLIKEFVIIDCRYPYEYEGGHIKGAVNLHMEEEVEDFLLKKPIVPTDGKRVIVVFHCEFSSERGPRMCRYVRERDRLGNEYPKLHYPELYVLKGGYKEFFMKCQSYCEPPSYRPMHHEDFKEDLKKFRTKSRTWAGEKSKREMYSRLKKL
T4 sequence (P10938 whole entry): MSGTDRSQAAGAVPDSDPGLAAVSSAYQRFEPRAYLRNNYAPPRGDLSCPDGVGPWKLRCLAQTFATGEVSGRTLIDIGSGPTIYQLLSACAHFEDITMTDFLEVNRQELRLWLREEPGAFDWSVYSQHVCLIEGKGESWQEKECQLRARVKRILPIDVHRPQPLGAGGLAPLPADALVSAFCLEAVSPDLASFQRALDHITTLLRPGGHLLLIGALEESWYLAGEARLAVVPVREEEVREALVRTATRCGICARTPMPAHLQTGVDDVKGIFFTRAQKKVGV
T6 sequence (P52732 whole entry): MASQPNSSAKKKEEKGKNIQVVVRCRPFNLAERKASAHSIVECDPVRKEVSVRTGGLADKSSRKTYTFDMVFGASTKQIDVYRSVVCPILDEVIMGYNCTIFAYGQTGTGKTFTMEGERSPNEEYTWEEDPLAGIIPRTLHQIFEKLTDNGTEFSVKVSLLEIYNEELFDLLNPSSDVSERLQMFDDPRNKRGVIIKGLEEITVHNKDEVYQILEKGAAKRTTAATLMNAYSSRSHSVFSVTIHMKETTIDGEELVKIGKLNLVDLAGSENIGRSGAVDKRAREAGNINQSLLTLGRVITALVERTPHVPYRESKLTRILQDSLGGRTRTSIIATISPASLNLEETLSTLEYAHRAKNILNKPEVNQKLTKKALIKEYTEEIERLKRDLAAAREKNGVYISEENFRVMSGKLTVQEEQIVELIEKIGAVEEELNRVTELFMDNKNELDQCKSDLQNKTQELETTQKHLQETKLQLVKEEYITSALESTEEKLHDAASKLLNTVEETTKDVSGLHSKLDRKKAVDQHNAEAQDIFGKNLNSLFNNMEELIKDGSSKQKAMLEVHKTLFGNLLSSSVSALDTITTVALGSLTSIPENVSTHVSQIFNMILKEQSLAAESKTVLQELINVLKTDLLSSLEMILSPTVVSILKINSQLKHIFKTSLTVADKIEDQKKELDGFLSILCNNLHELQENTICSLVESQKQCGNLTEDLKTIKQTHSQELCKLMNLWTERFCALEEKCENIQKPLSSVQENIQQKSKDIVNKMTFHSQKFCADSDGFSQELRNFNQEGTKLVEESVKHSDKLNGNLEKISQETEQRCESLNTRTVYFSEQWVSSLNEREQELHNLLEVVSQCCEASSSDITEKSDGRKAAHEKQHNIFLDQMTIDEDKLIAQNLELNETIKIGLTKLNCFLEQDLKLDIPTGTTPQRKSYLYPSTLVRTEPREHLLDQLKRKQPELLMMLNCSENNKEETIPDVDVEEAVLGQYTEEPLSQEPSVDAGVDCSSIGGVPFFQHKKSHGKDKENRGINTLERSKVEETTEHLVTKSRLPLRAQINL
T3 sequence (P18031 whole entry): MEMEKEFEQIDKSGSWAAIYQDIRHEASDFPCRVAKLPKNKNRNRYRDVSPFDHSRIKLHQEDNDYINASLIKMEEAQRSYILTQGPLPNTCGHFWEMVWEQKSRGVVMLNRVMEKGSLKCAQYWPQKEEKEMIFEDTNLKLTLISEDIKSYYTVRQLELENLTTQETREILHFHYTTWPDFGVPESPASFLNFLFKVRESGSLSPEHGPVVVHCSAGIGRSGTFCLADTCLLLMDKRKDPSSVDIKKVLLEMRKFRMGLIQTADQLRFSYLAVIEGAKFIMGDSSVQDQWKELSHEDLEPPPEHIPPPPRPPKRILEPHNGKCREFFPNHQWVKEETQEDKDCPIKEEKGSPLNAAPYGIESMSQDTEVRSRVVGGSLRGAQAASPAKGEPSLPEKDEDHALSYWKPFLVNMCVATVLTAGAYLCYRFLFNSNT
T1 sequence (Q96RQ9 22-567): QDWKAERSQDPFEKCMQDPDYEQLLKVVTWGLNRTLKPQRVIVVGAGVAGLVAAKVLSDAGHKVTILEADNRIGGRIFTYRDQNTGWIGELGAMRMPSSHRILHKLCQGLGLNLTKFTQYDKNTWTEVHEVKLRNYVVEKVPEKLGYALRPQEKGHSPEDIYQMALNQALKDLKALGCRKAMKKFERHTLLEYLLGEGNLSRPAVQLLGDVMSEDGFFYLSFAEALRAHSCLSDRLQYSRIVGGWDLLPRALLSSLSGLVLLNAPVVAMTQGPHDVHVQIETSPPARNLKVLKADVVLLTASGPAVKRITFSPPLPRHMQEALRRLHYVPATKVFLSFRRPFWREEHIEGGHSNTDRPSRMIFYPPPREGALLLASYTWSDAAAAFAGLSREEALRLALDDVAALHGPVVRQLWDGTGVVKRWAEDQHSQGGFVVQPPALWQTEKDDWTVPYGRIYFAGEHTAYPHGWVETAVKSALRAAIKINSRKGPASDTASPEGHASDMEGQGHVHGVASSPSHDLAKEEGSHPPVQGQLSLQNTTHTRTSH
T2 sequence (Q01064 whole entry): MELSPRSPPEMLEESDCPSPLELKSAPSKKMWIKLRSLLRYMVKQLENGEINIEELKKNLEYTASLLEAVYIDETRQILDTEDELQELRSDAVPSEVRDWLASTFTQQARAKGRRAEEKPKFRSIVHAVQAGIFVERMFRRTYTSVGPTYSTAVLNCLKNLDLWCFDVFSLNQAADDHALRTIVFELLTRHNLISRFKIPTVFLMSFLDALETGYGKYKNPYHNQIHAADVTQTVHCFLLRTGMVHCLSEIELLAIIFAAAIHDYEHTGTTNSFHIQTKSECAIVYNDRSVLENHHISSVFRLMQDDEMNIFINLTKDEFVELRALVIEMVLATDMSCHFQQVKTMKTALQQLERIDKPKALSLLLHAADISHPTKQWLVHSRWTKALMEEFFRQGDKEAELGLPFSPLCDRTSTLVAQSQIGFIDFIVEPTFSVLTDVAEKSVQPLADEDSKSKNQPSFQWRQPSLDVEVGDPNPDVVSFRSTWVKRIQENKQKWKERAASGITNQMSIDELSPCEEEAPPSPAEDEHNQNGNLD

For `Nc1nnc(CN[C@@H]2C[C@H]2c2ccc(OCc3ccccc3)cc2)o1` [ORY-2001, vafidemstat], the inhibition at 10 µM at Human recombinant IL-4I1 is 29%; against PDE1B (h), 7%; in assay [1] it was 2%; in assay [2] it was 1%; against phosphatase CDC25A (h) it was 5%; against Eg5 (h), -3%. For the same compound, the “time for brain target engagement levels to return to baseline” value in the assay on KDM1A (S2B Fig) is ~ 3 days. For the same compound, the “time to maximum target engagement” value with KDM1A (rat PBMCs and brain, days of administration) stood at 5 days. Further, in assay [3], the “active and passive social interaction” value is given as “had no effect on these parameters”. Besides, the number of evitations entry in assay [3] is on record as “restored to normality”. Also, in assay [3], the “time without social interaction” value is reported as “dose dependently reduced”.
